According to ChEMBL document CHEMBL1201862, “PubChem BioAssay data set” (2004):
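The compound was tested at five concentrations on cells cultured in 96-well plates, with a 48-hour exposure period. Here, GI50 denotes the concentration required for 50% inhibition of growth.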 Calls of active or inactive are those of the source. Cut-off read from the data, not from the text of the source: active = GI50 up to about 1.1 µM and inactive = higher.

Columns and labels:
Assay in all cases: NCI-60 cell line screen, 48 h
UACC-62 = test system: UACC-62
Hs-578T = test system: Hs-578T
IGROV-1 = test system: IGROV-1
LXFL 529 = test system: LXFL 529
RXF 631 = test system: RXF 631
RPMI-8226 = test system: RPMI-8226
DMS-114 = test system: DMS-114
COLO 205 = test system: COLO 205
NCI-H522 = test system: NCI-H522
KM12 = test system: KM12
UACC-257 = test system: UACC-257
OVCAR-3 = test system: OVCAR-3
A549 = test system: A549
KM-20L2 = test system: KM-20L2
NCI-H226 = test system: NCI-H226
RXF 393 = test system: RXF 393
XF498 = test system: XF498
MCF7 = test system: MCF7
A498 = test system: A498
HL-60 = test system: HL-60
HCT-116 = test system: HCT-116
SK-MEL-2 = test system: SK-MEL-2
SK-MEL-5 = test system: SK-MEL-5
LOX IMVI = test system: LOX IMVI
HOP-18 = test system: HOP-18
SNB-78 = test system: SNB-78
OVCAR-5 = test system: OVCAR-5
BT-549 = test system: BT-549
CCRF-CEM = test system: CCRF-CEM
HCC 2998 = test system: HCC 2998
SF-539 = test system: SF-539
SN12C = test system: SN12C
NCI/ADR-RES = test system: NCI/ADR-RES
K562 = test system: K562
ACHN = test system: ACHN
NCI-H23 = test system: NCI-H23
DU-145 = test system: DU-145
SK-MEL-28 = test system: SK-MEL-28
MDA-MB-435 = test system: MDA-MB-435
CAKI-1 = test system: CAKI-1
SW-620 = test system: SW-620
SF-268 = test system: SF-268
SK-OV-3 = test system: SK-OV-3
HOP-92 = test system: HOP-92
M14 = test system: M14
UO-31 = test system: UO-31
M19-MEL = test system: M19-MEL
DLD-1 = test system: DLD-1
EKVX = test system: EKVX
HOP-62 = test system: HOP-62
U-251 = test system: U-251
786-0 = test system: 786-0
T47D = test system: T47D
SF-295 = test system: SF-295
NCI-H460 = test system: NCI-H460
DMS-273 = test system: DMS-273
SNB-19 = test system: SNB-19
PC-3 = test system: PC-3
SR = test system: SR
MDA-N = test system: MDA-N
OVCAR-8 = test system: OVCAR-8
MOLT-4 = test system: MOLT-4
Malme-3M = test system: Malme-3M
SNB-75 = test system: SNB-75
HT-29 = test system: HT-29
HCT-15 = test system: HCT-15
TK-10 = test system: TK-10
OVCAR-4 = test system: OVCAR-4
MDA-MB-231 = test system: MDA-MB-231

N#CC1(C2SCC[S+]2[O-])C2=C(C(=O)c3ccccc3C2=O)N2CCCC21 (stereo unspecified)
GI50 (UACC-62): 2.85 µM (inactive) | GI50 (Hs-578T): 3.46 µM (inactive) | GI50 (IGROV-1): 1.75 µM (inactive) | GI50 (LXFL 529): 2.74 µM (inactive) | GI50 (RXF 631): 1.46 µM (inactive) | GI50 (RPMI-8226): 1.05 µM (active) | GI50 (DMS-114): 2.14 µM (inactive) | GI50 (COLO 205): 2.24 µM (inactive) | GI50 (NCI-H522): 2.11 µM (inactive) | GI50 (KM12): 3.02 µM (inactive) | GI50 (UACC-257): 1.36 µM (inactive) | GI50 (OVCAR-3): 583 nM (active) | GI50 (A549): 2.1 µM (inactive) | GI50 (KM-20L2): 4.97 µM (inactive) | GI50 (NCI-H226): 3.66 µM (inactive) | GI50 (RXF 393): 998 nM (active) | GI50 (XF498): 2.55 µM (inactive) | GI50 (MCF7): 1.63 µM (inactive) | GI50 (A498): 4.07 µM (inactive) | GI50 (HL-60): 1.55 µM (inactive) | GI50 (HCT-116): 2 µM (inactive) | GI50 (SK-MEL-2): 1.69 µM (inactive) | GI50 (SK-MEL-5): 0.364 µM (active) | GI50 (LOX IMVI): 0.986 µM (active) | GI50 (HOP-18): 3.25 µM (inactive) | GI50 (SNB-78): 1.49 µM (inactive) | GI50 (OVCAR-5): 3.78 µM (inactive) | GI50 (BT-549): 2.29 µM (inactive) | GI50 (CCRF-CEM): 2.94 µM (inactive) | GI50 (HCC 2998): 4.85 µM (inactive) | GI50 (SF-539): 3 µM (inactive) | GI50 (SN12C): 2.38 µM (inactive) | GI50 (NCI/ADR-RES): 3.12 µM (inactive) | GI50 (K562): 3.38 µM (inactive) | GI50 (ACHN): 5.52 µM (inactive) | GI50 (NCI-H23): 1.11 µM (active) | GI50 (DU-145): 2.18 µM (inactive) | GI50 (SK-MEL-28): 2.85 µM (inactive) | GI50 (MDA-MB-435): 497 nM (active) | GI50 (CAKI-1): 4.42 µM (inactive) | GI50 (SW-620): 2.13 µM (inactive) | GI50 (SF-268): 3.01 µM (inactive) | GI50 (SK-OV-3): 15.3 µM (inactive) | GI50 (HOP-92): 3.85 µM (inactive) | GI50 (M14): 1.17 µM (inactive) | GI50 (UO-31): 4.68 µM (inactive) | GI50 (M19-MEL): 286 nM (active) | GI50 (DLD-1): 2.74 µM (inactive) | GI50 (EKVX): 4.8 µM (inactive) | GI50 (HOP-62): 5.28 µM (inactive) | GI50 (U-251): 3.4 µM (inactive) | GI50 (786-0): 4.21 µM (inactive) | GI50 (T47D): 3.3 µM (inactive) | GI50 (SF-295): 1.99 µM (inactive) | GI50 (NCI-H460): 2.32 µM (inactive) | GI50 (DMS-273): 3.03 µM (inactive) | GI50 (SNB-19): 6.35 µM (inactive) | GI50 (PC-3): 1.88 µM (inactive) | GI50 (SR): 935 nM (active) | GI50 (MDA-N): 605 nM (active) | GI50 (OVCAR-8): 2.18 µM (inactive) | GI50 (MOLT-4): 3.06 µM (inactive) | GI50 (Malme-3M): 381 nM (active) | GI50 (SNB-75): 3.23 µM (inactive) | GI50 (HT-29): 3.59 µM (inactive) | GI50 (HCT-15): 2.21 µM | GI50 (TK-10): 8.77 µM (inactive) | GI50 (OVCAR-4): 1.7 µM (inactive) | GI50 (MDA-MB-231): 2.17 µM (inactive)

Cc1ccc(S(=O)(=O)N2c3ccccc3[C@H]3CCC=C[C@H]32)cc1
GI50 (UACC-62): 4.82 µM (inactive) | GI50 (Hs-578T): 15.4 µM (inactive) | GI50 (IGROV-1): 10.6 µM (inactive) | GI50 (LXFL 529): 9.55 µM (inactive) | GI50 (RXF 631): 10.8 µM (inactive) | GI50 (RPMI-8226): 6.55 µM (inactive) | GI50 (DMS-114): 3.12 µM (inactive) | GI50 (COLO 205): 3.94 µM (inactive) | GI50 (NCI-H522): 1.29 µM (inactive) | GI50 (KM12): 3.83 µM (inactive) | GI50 (UACC-257): 10.1 µM (inactive) | GI50 (OVCAR-3): 4000 nM (inactive) | GI50 (A549): 6.75 µM (inactive) | GI50 (KM-20L2): 3.18 µM (inactive) | GI50 (NCI-H226): 10.5 µM (inactive) | GI50 (RXF 393): 3610 nM (inactive) | GI50 (XF498): 8.65 µM (inactive) | GI50 (MCF7): 3.81 µM (inactive) | GI50 (A498): 6.4 µM (inactive) | GI50 (HL-60): 4.58 µM (inactive) | GI50 (HCT-116): 5.86 µM (inactive) | GI50 (SK-MEL-2): 4.58 µM (inactive) | GI50 (SK-MEL-5): 7.4 µM (inactive) | GI50 (LOX IMVI): 10.4 µM (inactive) | GI50 (HOP-18): 59.3 µM (inactive) | GI50 (SNB-78): 19.2 µM (inactive) | GI50 (OVCAR-5): 41.3 µM (inactive) | GI50 (BT-549): 8.91 µM (inactive) | GI50 (CCRF-CEM): 6.9 µM (inactive) | GI50 (HCC 2998): 8.11 µM (inactive) | GI50 (SF-539): 9.42 µM (inactive) | GI50 (SN12C): 14.5 µM (inactive) | GI50 (K562): 3.38 µM (inactive) | GI50 (ACHN): 19.3 µM (inactive) | GI50 (NCI-H23): 8.28 µM (inactive) | GI50 (DU-145): 20.3 µM (inactive) | GI50 (SK-MEL-28): 10.9 µM (inactive) | GI50 (CAKI-1): 12.1 µM (inactive) | GI50 (SW-620): 4.51 µM (inactive) | GI50 (SF-268): 10.9 µM (inactive) | GI50 (SK-OV-3): 2.54 µM (inactive) | GI50 (HOP-92): 3.16 µM (inactive) | GI50 (M14): 5.5 µM (inactive) | GI50 (UO-31): 5 µM (inactive) | GI50 (M19-MEL): 4680 nM (inactive) | GI50 (DLD-1): 13.3 µM (inactive) | GI50 (EKVX): 12.1 µM (inactive) | GI50 (HOP-62): 7.46 µM (inactive) | GI50 (U-251): 4.78 µM (inactive) | GI50 (786-0): 13.2 µM (inactive) | GI50 (T47D): 4.97 µM (inactive) | GI50 (SF-295): 3.91 µM (inactive) | GI50 (NCI-H460): 6.56 µM (inactive) | GI50 (DMS-273): 3.66 µM (inactive) | GI50 (SNB-19): 25.6 µM (inactive) | GI50 (PC-3): 11.2 µM (inactive) | GI50 (SR): 3030 nM (inactive) | GI50 (MDA-N): 3060 nM (inactive) | GI50 (OVCAR-8): 20.5 µM (inactive) | GI50 (MOLT-4): 4.81 µM (inactive) | GI50 (Malme-3M): 4070 nM (inactive) | GI50 (SNB-75): 5.05 µM (inactive) | GI50 (HT-29): 3.45 µM (inactive) | GI50 (HCT-15): 4.59 µM | GI50 (TK-10): 13.7 µM (inactive) | GI50 (OVCAR-4): 17.3 µM (inactive) | GI50 (MDA-MB-231): 49.2 µM (inactive)
